In data set [1] the test system is HeLa. The experiment in a line: Cellular uptake in human HeLa cells assessed as increase in cellular fluorescence at 5 uM after 4 hrs by flow cytometry relative to control. It is filed as ADME, cell-based.
Data set [2] has as its system HeLa. The experiment in a line: Cellular uptake in human HeLa cells at 5 uM after 4 hrs by flow cytometry relative control. It is filed as ADME, cell-based. Background: A flow cytometer gives signals particle by particle.
A short description of data set [3]: Cellular uptake in human HeLa cell lysosomes using LysoTracker dye at 1 uM after 4 hrs. The class given is ADME, cell-based, Lysosome.
The nature of data set [4]: Cellular uptake in human HeLa cell mitochondria using mitotracker dye at 5 uM after 1 hr by confocal microscopy in presence of FCCP. It is filed as ADME.
A short description of data set [5]: Cellular uptake in human HeLa cell cytosol at 5 uM after 1 hr by confocal microscopy in presence of FCCP. The class given is ADME, cell-based.
Data set [6] is described as follows: Cellular uptake in human HeLa cell lysosomes using LysoTracker dye at 5 uM after 1 hr by confocal microscopy in presence of FCCP. It is filed as ADME, cell-based, Lysosome.
Data set [7] is described as follows: Cellular uptake in human HeLa cell mitochondria using mitotracker dye at 5 uM after 4 hrs. The class given is ADME.
Data set [8] in a line: Cellular uptake in human HeLa cell mitochondria using mitotracker dye at 5 uM after 30 mins. It is filed as ADME. The following applies: 0.5 h.
For data set [9], the system named is HeLa. The experiment in a line: Cellular uptake in human HeLa cells after 4 hrs by flow cytometry. It is filed as ADME, cell-based.
A short description of data set [10]: Cellular uptake in human HeLa cell mitochondria using mitotracker dye at 1 uM after 4 hrs. The class given is ADME.
Data set [11] has as its system HeLa. In words: Cellular uptake in human HeLa cells up to 2.5 uM after 4 hrs by flow cytometry. The class given is ADME, cell-based.

Two compounds from ChEMBL document CHEMBL1932963, “Mitochondrial targeting of a cationic amphiphilic polyproline helix” (Bioorg Med Chem Lett, 2012) can be followed below.

Regarding `CC(C)CO[C@H]1C[C@H](C(=O)N2C[C@@H](OCCCNC(=N)N)C[C@@H]2C(=O)N2C[C@@H](OCCCNC(=N)N)C[C@@H]2C(=O)N2C[C@@H](OCC(C)C)C[C@@H]2C(=O)N2C[C@@H](OCCCNC(=N)N)C[C@@H]2C(=O)N2C[C@@H](OCCCNC(=N)N)C[C@@H]2C(=O)N2C[C@@H](OCC(C)C)C[C@@H]2C(N)=O)N(C[C@H]2C[C@H](OCCCNC(=N)N)CN2C(=O)[C@H]2C[C@H](OCCCNC(=N)N)CN2C(=O)[C@H]2C[C@H](OCC(C)C)CN2C(=O)[C@H]2C[C@H](OCCCNC(=N)N)CN2C(=O)[C@H]2C[C@H](OCCCNC(=N)N)CN2C(=O)[C@H]2C[C@H](OCC(C)C)CN2C(=O)CNC(=O)c2cccc(-c3c4ccc(=O)cc-4oc4cc(O)ccc34)c2C(=O)O)C1`, the figures for the Ratio in data set [1] and in data set [2] were 14 and 7.5, respectively. Also, the Drug uptake entry in data set [3] is on record as “Active”; in data set [4], “Not Active”; in data set [5] it was “Active”; in data set [6], “Active”; in [7], “Active”; in data set [8], “Active”. The values for the Drug uptake result in data set [9] and in data set [10] were “Dose-dependent effect” and “Active”, respectively.
Take `N=C(N)NCCC[C@H](NC(=O)[C@H](CCCNC(=N)N)NC(=O)[C@H](CCCNC(=N)N)NC(=O)[C@H](CCC(N)=O)NC(=O)[C@H](CCCNC(=N)N)NC(=O)[C@H](CCCNC(=N)N)NC(=O)[C@H](CCCCN)NC(=O)[C@H](CCCCN)NC(=O)[C@H](CCCNC(=N)N)NC(=O)CNC(=O)[C@H](Cc1ccc(O)cc1)NC(=O)c1ccccc1-c1c2ccc(=O)cc-2oc2cc(O)ccc12)C(N)=O`: in data set [11], the Drug uptake result was “Not Active”.
